Source: ChEMBL document CHEMBL1201862, “PubChem BioAssay data set” (2004)
Calls of active or inactive are those of the source.

Tests used:
[1] = target: Voltage-dependent T-type calcium channel subunit alpha-1H (Homo sapiens, UniProt O95180); format: functional;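 also: channel activity triggered by adding a high calcium stimulation buffer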
Trypsin = Trypsin (Sus scrofa, UniProt P00761); test: porcine trypsin inhibitors, dose response, selectivity assay for Rce1 protease inhibitor project, biochemical, quenched peptide fluorescence, cherry-pick (AID 488789)
CAAX prenyl protease 2 = target: T1, CAAX prenyl protease 2 (Saccharomyces cerevisiae S288c, UniProt Q03530); format: biochemical
T1 sequence (Q03530 whole entry): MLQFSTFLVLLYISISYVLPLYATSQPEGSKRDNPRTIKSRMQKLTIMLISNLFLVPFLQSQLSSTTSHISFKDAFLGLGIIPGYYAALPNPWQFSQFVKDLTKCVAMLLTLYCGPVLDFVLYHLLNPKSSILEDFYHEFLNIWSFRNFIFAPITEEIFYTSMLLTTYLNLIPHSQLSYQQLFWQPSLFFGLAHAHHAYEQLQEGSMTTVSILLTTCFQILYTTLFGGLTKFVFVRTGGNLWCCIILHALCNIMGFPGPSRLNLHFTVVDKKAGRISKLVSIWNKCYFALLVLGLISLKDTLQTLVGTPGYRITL

ORF 73 = ORF 73 (Human herpesvirus 8, UniProt O40947); test: inhibitors of C-LANA binding to LBS DNA, dose response, biochemical, fluorescence polarization, cherry-picked samples (AID 504725); design: species or system Human gammaherpesvirus 8;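 also: fluorescence polarization of a labeled DNA duplex reporting LANA DNA binding; potency is for inhibitors that block LANA binding to the DNA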
ORF 73, sequence (O40947 whole entry, the tested form may be a part): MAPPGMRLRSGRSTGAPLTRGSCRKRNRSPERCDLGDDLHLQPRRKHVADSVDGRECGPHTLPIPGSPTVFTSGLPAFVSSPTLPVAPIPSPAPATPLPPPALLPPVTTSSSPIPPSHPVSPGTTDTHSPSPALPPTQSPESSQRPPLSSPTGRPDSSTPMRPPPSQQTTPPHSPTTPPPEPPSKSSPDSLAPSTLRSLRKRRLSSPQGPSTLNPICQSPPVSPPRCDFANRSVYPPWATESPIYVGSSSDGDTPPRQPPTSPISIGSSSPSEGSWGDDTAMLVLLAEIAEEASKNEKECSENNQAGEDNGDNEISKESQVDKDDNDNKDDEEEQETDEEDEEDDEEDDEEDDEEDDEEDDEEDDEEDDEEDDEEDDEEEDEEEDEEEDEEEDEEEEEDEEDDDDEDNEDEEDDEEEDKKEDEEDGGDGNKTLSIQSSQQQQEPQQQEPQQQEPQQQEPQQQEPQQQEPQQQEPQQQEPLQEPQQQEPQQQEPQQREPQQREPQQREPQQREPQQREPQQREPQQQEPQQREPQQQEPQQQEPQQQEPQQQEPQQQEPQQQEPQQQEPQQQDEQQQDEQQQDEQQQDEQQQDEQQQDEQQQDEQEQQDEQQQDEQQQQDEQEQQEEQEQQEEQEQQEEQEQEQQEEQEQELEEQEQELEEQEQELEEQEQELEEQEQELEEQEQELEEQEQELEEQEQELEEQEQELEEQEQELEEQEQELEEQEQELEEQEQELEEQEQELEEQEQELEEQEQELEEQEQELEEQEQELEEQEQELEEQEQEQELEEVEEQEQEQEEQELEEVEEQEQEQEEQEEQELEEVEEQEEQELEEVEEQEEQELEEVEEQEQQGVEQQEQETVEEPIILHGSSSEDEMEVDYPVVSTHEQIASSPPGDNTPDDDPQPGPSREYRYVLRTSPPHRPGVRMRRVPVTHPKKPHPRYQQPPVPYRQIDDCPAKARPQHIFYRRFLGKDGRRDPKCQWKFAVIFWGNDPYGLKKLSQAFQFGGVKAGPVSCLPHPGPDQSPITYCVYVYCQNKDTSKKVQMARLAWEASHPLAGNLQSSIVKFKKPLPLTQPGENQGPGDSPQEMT

[2] = target: T2, Carboxy-terminal domain RNA polymerase II polypeptide A small phosphatase 1 (Homo sapiens, UniProt Q9GZU7); test: inhibitors of CTDSP1, concentration-response testing, biochemical assay, absorbance-based, actives from ultra-high-throughput screening (AID 540297); format: functional
T2 sequence (Q9GZU7 whole entry): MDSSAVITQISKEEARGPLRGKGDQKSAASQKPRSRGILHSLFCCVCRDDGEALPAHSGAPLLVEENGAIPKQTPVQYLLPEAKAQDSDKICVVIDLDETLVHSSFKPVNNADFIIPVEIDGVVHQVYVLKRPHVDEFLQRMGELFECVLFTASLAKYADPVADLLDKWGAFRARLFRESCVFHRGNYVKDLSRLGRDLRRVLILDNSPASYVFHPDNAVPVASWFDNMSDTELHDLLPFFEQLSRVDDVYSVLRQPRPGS

[3] = target: DNA (cytosine-5)-methyltransferase 1 (Homo sapiens, UniProt P26358); test: DNMT1 methyltransferase inhibitors, confirmation, biochemical, fluorescent molecular beacon (AID 602386); format: functional
DNA (cytosine-5)-methyltransferase 1, sequence (P26358 whole entry): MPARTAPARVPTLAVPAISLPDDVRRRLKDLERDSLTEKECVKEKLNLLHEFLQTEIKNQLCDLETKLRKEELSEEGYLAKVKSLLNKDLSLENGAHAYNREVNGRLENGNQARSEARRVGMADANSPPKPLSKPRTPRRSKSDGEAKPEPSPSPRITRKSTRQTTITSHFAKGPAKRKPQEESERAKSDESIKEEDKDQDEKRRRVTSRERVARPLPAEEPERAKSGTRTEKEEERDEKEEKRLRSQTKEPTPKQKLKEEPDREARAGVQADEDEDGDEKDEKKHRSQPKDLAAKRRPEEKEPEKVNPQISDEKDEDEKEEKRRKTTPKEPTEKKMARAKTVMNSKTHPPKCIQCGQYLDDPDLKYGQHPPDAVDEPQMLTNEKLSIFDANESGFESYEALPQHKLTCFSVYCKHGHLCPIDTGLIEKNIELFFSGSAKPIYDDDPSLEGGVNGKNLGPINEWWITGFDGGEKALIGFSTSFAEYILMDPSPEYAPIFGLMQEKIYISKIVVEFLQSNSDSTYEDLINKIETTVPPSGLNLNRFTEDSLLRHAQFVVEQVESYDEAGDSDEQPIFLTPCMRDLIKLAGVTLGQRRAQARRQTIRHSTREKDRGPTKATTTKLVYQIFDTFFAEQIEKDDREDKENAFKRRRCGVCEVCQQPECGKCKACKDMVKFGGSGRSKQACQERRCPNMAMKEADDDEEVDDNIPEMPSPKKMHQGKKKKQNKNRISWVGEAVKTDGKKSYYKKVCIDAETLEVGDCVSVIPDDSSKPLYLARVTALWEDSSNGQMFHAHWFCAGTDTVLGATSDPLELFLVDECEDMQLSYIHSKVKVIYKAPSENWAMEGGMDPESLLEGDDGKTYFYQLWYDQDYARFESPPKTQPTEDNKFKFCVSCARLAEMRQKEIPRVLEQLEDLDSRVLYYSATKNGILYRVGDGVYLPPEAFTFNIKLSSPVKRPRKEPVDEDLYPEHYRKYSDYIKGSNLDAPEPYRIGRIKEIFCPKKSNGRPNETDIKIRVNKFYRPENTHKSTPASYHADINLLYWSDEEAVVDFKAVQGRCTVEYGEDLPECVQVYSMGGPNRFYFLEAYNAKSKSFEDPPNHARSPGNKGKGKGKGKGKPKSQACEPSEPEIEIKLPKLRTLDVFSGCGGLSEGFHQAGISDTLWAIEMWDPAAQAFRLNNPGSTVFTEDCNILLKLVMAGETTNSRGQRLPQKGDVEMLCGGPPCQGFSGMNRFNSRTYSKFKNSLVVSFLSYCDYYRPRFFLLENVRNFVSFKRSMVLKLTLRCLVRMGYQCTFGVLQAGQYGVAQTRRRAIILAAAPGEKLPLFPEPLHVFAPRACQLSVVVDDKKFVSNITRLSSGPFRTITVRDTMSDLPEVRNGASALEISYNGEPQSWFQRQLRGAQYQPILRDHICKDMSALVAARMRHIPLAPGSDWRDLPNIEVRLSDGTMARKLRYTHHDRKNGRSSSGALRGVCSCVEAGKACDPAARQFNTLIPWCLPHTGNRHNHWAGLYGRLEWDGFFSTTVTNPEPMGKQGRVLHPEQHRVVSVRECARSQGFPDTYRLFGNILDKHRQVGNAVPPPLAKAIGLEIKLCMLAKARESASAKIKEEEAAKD

[4] = target: T3, Long-chain-fatty-acid--AMP ligase FadD28 (Mycobacterium tuberculosis, UniProt P9WQ59); test: Fluorescence polarization aasay to screen for inhibitors that compete for the binding of FadD28 to a bisubstrate Measured in Biochemical System Using Plate Reader - 2147-01_Inhibitor_Dose_CherryPick_Activity.; format: functional, Mycobacterium tuberculosis H37Rv
T3 sequence (P9WQ59 whole entry): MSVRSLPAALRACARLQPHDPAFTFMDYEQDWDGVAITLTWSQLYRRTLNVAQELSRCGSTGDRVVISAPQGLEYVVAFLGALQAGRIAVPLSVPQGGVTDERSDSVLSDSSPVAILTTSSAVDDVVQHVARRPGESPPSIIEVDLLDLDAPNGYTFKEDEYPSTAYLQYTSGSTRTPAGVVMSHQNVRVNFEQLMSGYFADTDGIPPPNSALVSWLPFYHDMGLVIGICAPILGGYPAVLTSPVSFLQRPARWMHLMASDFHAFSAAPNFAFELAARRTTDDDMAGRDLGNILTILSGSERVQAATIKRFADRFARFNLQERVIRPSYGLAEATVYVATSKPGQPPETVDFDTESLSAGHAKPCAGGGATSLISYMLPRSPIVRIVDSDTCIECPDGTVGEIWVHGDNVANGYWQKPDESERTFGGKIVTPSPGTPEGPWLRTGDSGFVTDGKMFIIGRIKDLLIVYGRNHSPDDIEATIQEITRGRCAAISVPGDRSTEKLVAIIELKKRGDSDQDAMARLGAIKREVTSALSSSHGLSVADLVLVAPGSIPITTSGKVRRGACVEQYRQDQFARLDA

[5] = Luminescence Cell-Based Dose Retest to Confirm Inhibitors of Cancer Stem Cells. [Related pubchem assays (depositor defined):AID2717, AID2721]; format: functional; details: Homo sapiens
Leucine aminopeptidase = target: T4, Leucine aminopeptidase (Plasmodium falciparum 3D7, UniProt Q8IL11); test: P. falciparum M17LAP inhibitors, primary screen, biochemical, fluorogenic H-Leu-NHMec substrate, 1536-well (AID 1619); format: functional
T4 sequence (Q8IL11 whole entry): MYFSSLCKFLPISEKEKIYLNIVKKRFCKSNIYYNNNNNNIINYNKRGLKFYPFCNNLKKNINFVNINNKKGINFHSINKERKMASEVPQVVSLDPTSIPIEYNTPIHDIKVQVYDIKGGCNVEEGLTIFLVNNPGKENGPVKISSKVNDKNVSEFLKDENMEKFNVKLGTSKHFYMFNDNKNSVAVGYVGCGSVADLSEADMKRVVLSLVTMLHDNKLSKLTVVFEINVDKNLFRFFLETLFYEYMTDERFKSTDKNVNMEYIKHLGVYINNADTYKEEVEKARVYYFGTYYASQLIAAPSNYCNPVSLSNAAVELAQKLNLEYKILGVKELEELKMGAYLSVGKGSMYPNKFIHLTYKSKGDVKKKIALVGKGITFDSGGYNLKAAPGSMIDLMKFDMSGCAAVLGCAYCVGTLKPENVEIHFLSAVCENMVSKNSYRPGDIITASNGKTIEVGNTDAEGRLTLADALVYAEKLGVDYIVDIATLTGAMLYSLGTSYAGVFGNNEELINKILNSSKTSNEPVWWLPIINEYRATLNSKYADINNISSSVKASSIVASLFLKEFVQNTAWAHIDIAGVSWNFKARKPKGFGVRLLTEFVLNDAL

cells [6] = format: functional, cell-based
cells [7] = format: functional, cell-based; remark: listed apart in the source
[8] = target: DNA dC->dU-editing enzyme APOBEC-3G (Homo sapiens, UniProt Q9HC16); test: Dose Response confirmation of small molecule APOBEC3G DNA Deaminase Inhibitors via a fluorescence-based single-stranded DNA deaminase assay. [Related pubchem assays (depositor defined):AID493012, AID493028]; format: functional
BJ [9] = test: cytotoxicity toward BJ-TERT fibroblasts, dose response, cell-based, RAS-independent, luminescence (AID 1933); format: functional; details: Homo sapiens
BJ [10] = test: cells; format: functional, cell-based; details: Homo sapiens
[11] = inhibitors of intracellular T. cruzi replication, confirmation, NIH3T3 host cells, beta-gal luminescence (AID 2044); format: functional, cell-based;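 also: intracellular parasites grown in NIH/3T3 mouse fibroblasts as host cells; luminescent beta-galactosidase reporter signal from transgenic T. cruzi replicating inside host cells; inhibitors lower the luminescence signal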
[12] = cytotoxicity toward NIH3T3 fibroblasts, dose response, counter-screen, cell-based, ATP luminescence, mouse fibroblasts (AID 2010); format: functional;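 also: cells exposed to compound for about 90 hours before reading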
BJ [13] = test: cytotoxicity toward BJ-TERT-LT-ST fibroblasts, dose response, cell-based, RAS-independent, luminescence (AID 1935); format: functional; details: Homo sapiens;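 also: BJ fibroblasts immortalized with TERT plus LT and ST oncogenes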
[14] = cytotoxicity toward DRD oncogenic fibroblasts, dose response, cell-based, non-viral oncogenic, luminescence (AID 1934); format: functional; details: Homo sapiens
Hexokinase HKDC1 = target: T5, Hexokinase HKDC1 (Homo sapiens, UniProt Q2TB90); test: HKDC1 hexokinase inhibitors, dose response, biochemical, W721R variant (AID 504729); format: functional
T5 sequence (Q2TB90 whole entry): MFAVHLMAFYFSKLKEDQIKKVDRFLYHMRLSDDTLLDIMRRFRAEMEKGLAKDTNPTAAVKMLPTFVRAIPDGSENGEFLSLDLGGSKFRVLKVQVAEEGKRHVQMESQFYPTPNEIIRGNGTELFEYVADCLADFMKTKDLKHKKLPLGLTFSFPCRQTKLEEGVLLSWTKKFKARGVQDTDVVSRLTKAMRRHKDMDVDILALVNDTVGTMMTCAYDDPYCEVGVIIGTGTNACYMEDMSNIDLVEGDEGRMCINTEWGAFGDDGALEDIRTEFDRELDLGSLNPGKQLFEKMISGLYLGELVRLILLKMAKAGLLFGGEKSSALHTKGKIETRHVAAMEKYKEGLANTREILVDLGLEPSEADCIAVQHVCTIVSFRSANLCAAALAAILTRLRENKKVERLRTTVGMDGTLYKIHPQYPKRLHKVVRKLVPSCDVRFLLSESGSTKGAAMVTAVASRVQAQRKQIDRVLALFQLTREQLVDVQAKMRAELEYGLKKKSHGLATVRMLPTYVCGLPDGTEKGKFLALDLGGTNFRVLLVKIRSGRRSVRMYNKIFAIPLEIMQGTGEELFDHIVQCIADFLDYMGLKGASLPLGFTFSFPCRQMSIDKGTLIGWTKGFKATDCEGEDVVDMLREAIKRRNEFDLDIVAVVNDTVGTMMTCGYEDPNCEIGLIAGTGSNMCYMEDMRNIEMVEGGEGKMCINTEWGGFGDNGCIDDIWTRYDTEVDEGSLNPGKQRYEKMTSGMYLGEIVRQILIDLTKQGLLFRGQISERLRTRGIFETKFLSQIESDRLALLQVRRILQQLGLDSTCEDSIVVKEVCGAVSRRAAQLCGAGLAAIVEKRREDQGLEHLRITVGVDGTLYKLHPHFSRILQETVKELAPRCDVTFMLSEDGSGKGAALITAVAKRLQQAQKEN

[15] = Shn3 3'UTR reporter inhibitors, dose response, cell-based, Clone20 osteoblasts, firefly luciferase, cherry-picked (AID 624132); format: functional;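 also: firefly luciferase luminescence from reporter carrying the Shn3 3'UTR in osteoblasts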
[16] = HepG2 cell cytotoxicity, dose response, cytotoxicity control for Shn3 inhibitor project, CellTiter-Glo, cherry-picked (AID 624134); format: functional, cell-based
[17] = control 3'UTR Renilla luciferase suppression, dose response, counter-screen for Shn3 inhibitor project, cell-based, Clone20-Shn3RL, cherry-picked (AID 624133); format: functional
[18] = target: T6, Histone-lysine N-methyltransferase NSD2 (Homo sapiens, UniProt O96028); format: biochemical
T6 sequence (O96028 whole entry): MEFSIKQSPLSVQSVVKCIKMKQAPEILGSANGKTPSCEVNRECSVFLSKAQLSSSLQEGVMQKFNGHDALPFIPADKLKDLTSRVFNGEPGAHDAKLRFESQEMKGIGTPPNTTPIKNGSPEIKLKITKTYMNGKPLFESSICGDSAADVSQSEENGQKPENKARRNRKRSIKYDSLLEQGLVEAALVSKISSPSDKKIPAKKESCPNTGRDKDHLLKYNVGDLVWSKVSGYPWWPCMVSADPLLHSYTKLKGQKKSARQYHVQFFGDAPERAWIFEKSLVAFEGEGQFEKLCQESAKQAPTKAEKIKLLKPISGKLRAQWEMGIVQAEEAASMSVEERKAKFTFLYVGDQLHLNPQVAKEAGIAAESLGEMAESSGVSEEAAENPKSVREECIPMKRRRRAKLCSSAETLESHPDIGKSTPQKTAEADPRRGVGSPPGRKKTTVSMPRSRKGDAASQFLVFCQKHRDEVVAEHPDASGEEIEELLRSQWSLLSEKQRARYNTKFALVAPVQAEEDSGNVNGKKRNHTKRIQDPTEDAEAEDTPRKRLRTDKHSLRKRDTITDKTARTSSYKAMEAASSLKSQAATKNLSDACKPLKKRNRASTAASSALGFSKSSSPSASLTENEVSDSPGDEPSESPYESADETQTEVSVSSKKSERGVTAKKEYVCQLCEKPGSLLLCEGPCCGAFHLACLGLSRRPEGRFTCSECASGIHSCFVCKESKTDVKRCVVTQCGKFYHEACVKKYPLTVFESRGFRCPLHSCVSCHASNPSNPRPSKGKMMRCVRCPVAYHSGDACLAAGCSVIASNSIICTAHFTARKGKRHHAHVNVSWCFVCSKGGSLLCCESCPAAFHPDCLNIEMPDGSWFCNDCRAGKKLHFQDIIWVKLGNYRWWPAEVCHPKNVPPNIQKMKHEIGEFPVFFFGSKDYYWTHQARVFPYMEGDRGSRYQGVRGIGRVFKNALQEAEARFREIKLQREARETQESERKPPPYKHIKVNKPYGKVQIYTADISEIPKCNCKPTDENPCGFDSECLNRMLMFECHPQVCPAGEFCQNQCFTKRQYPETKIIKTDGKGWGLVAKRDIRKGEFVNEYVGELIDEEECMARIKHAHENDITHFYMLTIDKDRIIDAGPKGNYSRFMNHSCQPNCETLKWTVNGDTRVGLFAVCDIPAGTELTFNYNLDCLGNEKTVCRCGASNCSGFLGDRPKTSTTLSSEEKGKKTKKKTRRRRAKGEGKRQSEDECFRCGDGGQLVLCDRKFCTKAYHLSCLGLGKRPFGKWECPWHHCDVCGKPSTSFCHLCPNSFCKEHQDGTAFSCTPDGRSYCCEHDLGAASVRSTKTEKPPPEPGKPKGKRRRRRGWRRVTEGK

Voltage-dependent T-type calcium channel subunit alpha-1H, sequence (O95180 whole entry): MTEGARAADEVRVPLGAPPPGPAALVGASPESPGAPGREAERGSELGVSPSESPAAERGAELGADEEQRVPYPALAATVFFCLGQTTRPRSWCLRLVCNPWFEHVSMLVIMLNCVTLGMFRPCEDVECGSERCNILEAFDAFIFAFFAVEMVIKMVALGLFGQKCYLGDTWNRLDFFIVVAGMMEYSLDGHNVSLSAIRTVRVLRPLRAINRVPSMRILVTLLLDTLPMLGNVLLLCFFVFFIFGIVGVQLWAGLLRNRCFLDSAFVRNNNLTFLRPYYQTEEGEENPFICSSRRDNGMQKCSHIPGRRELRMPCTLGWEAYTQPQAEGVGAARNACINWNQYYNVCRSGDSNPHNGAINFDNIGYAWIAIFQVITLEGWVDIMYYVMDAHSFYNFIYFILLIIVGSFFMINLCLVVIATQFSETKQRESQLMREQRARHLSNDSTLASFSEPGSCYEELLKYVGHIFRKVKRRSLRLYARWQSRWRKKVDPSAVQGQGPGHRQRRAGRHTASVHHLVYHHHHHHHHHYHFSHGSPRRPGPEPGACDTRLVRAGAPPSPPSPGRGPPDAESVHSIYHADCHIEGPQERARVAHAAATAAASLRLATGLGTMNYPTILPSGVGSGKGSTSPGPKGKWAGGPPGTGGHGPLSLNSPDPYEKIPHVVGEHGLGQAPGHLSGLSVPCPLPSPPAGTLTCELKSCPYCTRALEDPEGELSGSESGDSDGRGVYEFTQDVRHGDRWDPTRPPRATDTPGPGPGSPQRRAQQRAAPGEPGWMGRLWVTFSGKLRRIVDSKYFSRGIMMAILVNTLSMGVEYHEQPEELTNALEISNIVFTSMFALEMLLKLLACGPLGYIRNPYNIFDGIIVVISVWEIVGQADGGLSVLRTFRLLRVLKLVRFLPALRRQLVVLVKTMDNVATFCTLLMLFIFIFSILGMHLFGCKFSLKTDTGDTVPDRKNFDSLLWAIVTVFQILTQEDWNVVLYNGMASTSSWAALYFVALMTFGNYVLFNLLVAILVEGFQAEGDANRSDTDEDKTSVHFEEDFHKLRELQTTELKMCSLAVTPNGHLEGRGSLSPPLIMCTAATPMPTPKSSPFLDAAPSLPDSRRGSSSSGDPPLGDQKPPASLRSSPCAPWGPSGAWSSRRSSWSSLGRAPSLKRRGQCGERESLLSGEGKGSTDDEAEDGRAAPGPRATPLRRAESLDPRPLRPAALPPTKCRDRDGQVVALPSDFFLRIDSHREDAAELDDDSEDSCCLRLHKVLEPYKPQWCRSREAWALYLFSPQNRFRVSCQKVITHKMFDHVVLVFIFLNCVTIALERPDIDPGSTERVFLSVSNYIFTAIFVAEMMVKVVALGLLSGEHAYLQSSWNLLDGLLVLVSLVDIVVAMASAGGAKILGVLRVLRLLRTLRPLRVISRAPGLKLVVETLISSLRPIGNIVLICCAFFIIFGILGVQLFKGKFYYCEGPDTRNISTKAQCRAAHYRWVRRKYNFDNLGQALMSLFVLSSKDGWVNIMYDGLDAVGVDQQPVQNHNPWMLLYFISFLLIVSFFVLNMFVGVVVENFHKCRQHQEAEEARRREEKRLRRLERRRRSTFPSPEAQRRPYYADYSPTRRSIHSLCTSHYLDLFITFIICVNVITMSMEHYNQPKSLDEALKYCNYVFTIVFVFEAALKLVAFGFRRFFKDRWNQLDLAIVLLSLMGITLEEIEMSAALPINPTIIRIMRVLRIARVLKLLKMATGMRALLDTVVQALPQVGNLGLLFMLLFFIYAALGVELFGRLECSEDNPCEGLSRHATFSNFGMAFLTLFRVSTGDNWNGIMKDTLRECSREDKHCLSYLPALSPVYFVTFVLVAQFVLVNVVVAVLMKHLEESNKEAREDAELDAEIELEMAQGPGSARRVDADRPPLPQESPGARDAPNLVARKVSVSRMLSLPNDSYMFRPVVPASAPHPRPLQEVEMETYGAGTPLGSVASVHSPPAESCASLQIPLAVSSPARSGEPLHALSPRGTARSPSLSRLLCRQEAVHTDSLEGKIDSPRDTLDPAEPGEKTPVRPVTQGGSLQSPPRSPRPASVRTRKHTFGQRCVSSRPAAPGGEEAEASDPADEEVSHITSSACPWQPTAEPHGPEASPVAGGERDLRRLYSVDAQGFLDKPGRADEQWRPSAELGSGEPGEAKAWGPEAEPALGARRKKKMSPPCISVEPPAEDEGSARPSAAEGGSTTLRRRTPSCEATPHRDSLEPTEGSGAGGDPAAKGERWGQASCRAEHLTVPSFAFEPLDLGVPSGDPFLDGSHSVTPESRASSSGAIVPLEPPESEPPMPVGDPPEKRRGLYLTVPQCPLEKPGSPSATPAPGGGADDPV

O=C(NC1CCCC1)C(c1ccccc1)N(Cc1ccc2c(c1)OCO2)C(=O)Cc1cccs1 (stereo unspecified)
EC50 [1]: 1.52 µM (active)

CCN(CC)Cc1c(O)ccc2c(=O)c(-c3ccccc3OC)coc12
AC50 (Trypsin): 21.4 µM (active)
AC50 (CAAX prenyl protease 2): 13.8 µM (active)

Cc1ccccc1NC(=O)CN1C(=O)N/C(=C\c2cccn2-c2cccc(C(=O)O)c2)C1=O
AC50 (ORF 73): 74.7 µM (active)
IC50 [2]: 4.42 µM (active)
IC50 [3]: 6.37 µM (active)
AC50 [4]: 55.3 µM (active)

COc1ccc(Cn2nnnc2C(C(C)C)N(Cc2ccco2)Cc2cccs2)cc1 (stereo unspecified)
EC50 [1]: 6.56 µM (active)
AC50 [5]: 2.02 µM (active)

COc1cccc(Nc2nnc(S)s2)c1
IC50 (Leucine aminopeptidase): 6.54 µM (active)
EC50 (cells [6]): > 350 µM (not active)
EC50 (cells [7]): > 350 µM (not active)
IC50 [8]: > 100 µM (inactive)

CCN(CC)CCNc1cc(C)nc2c1C(=O)C(=O)C=C2N1CCCCC1
EC50 (BJ [9]): 5.91 µM (inconclusive)
EC50 (cells [6]): > 350 µM (not active)
EC50 (BJ [10]): 10.2 µM (active)
EC50 [11]: 1.44 µM (active)
EC50 (cells [7]): > 350 µM (not active)
EC50 [12]: > 60 µM (not active)
EC50 (BJ [13]): 8.38 µM (active)
EC50 [14]: 9.47 µM (active)
IC50 (Hexokinase HKDC1): 13.2 µM (active)
AC50 [15]: 6.61 µM (active)
AC50 [16]: 5.54 µM (active)
AC50 [17]: 6.45 µM (active)
AC50 [18]: > 20 µM (inactive)
